Source: patent US20180238860A1, “INDIVIDUAL METHOD PREDICTIVE OF THE DNA-BREAKING GENOTOXIC EFFECTS OF CHEMICAL OR BIOCHEMICAL AGENTS” (priority 2015, published 2018)

How the values were obtained:
Type in all cases: cell-based, human
[1] = system: MRC9 (control cells); test: pH2AX foci immunofluorescence 24 h after contacting, MRC9 control fibroblasts; details: for pH2AX(24 h) + 2xSEM / pH2AX(24 h): MRC9; for pH2AX(24 h): 24 hours after contacting
Method: (§1) the cells are fixed in 3% paraformaldehyde and 2% sucrose for 15 minutes at ambient temperature and permeabilized in 20 mM HEPES buffer solution (4-(2-hydroxyethyl)-1-piperazine ethane sulfonic acid) at pH 7.4, 50 mM NaCl, 3 mM MgCl2, 300 mM sucrose, 0.5% Triton X-100 (a non-ionic surfactant having the formula t-Oct-C6H4-(OCH2CH2)×OH where x=9-10, CAS No. 9002-93-1, supplied for example by Sigma Aldrich) for 3 minutes. The glass coverslips are then washed in phosphate buffer saline (known as the acronym PBS) before immunological staining. The incubation took place for 40 min at 37° C. in PBS supplemented with 2% bovine serum albumin (known as the acronym BSA or fraction V, supplied for example by Sigma Aldrich) and was followed by a wash with PBS. Anti-pH2AX primary antibodies are used at a concentration of 1:800. The incubations with anti-mouse FITC or anti-rabbit TRITC secondary antibodies (1:100, supplied by Sigma Aldrich) were performed at 37° C. in 2% BSA for 20 minutes. Glass coverslips were treated with Vectashield™ containing DAPI (4,6-Diamidino-2-phenylindole) to label the nucleus. Staining with DAPI also makes it possible, indirectly, to determine the number of cells in phase G1 (nuclei with homogenous DAPI staining), in phase S (nuclei with numerous pH2AX foci), in phase G2 (nuclei with heterogeneous DAPI staining) and metaphases (visible chromosomes).
Commercial MRC9 control fibroblasts were amplified according to the recommendations of the supplier (SIGMA-ALDRICH) until the number of cells sought was obtained. After obtaining a sufficient number of cells (generally after one to 3 weeks), the first experiments were conducted using the process according to the invention. The cells were inoculated on glass coverslips in Petri dishes. A portion of these coverslips was then contacted with the medium under test comprising 5FU at a given concentration presented in table 2 hereinafter.
(§2) After contacting with 5FU at a given concentration, the cells were stored in the culture incubator at 37° C. 24 hours after contacting with 5FU at a given concentration as presented in table 2, the mean number of nuclear foci obtained with the marker pH2AX was acquired. The acquisition of the results was carried out using these coverslips on an immunofluorescence microscope (Olympus model). The reading was performed directly by counting the foci obtained with the marker pH2AX on at least 50 cells in G0/G1 for each point or using dedicated image analysis software (imageJ).
In order to obtain results of sufficient statistical reliability to serve as a basis for diagnosis, 3 independent series of experiments were performed. The mean and standard errors of the mean (“SEM” or σ) of each of the numbers of foci acquired after 24 hours of contacting the control cells with 5FU at a given concentration was calculated and presented in table 2.

[2] = system: GM02718 cells; test: pH2AX foci immunofluorescence 24 h after contacting, GM02718 cell line; details: for pH2AX(24 h) + 2xSEM / pH2AX(24 h): GM002718; for pH2AX(24 h): 24 hours after contacting
Method: as §1
The cell line GM02718 was amplified according to the recommendations of the supplier (Coriell Institute) until the number of cells sought was obtained.
(§3) After obtaining a sufficient number of cells (generally after one to 3 weeks), the first experiments were conducted using the process according to the invention. The GM02718, or 03HLS, line cells were inoculated on glass coverslips in Petri dishes. A portion of these coverslips was then contacted with 5FU at a concentration of 30 μM. By way of verification, a further portion of these coverslips was contacted with 5FU at a given concentration (see table 2, see FIG. 2 (B) for the cell line GM02718, respectively FIG. 2 (C) for the cell line 03HLS).
as §2
(§4) In order to obtain results of sufficient statistical reliability to serve as a basis for diagnosis, 3 independent series of experiments were performed. The mean and standard errors of the mean (“SEM” or σ) of each of the numbers of foci acquired after 24 hours of contacting the control cells with 5FU at a given concentration was calculated and presented in table 2 and in FIG. 2 (B) for the cell line GM02718, respectively FIG. 2 (C) for the cell line 03HLS.

[3] = system: 03HLS cells; test: pH2AX foci immunofluorescence 24 h after contacting, 03HLS patient skin cell line; details: for pH2AX(24 h): 24 hours after contacting
Method: as §1
For the line 03 HLS, a skin cell sample from a patient was sampled by biopsy via the “skin punch” method known to those skilled in the art. The cell sample was then placed in DMEM medium+20% sterile fetal calf serum. The cell sample was then transferred without delay to a specialized laboratory, so that the sample remained not more than 38 hours at ambient temperature.
On receipt, the cell sample from the biopsy was established in the form of an amplifiable 03HLS cell line according to a procedure well known to culture laboratories and those skilled in the art: using particularly the trypsin dispersion, the cells are once again diluted in replenished medium and so on until the number of cells sought is obtained.
as §3, §2, §4

[4] = system: HMEC cells; test: pH2AX foci 24 h after contacting, Table 4 lower part (HMEC endothelial cells); details: line cell blank (below Hasp), 24 hours after contacting
Method: (§5) In one embodiment, on receipt, the tissue sample (typically the biopsy) is established in the form of an amplifiable cell line without a viral or chemical transformation agent according to an ancillary procedure well known to culture laboratories, as underlined by the publication of Elkind et al. “The radiobiology of cultured mammalian cell”, Gordon and Breach (1967). Once the number of cells is sufficient (typically after 1 to 3 weeks), the first experiments are carried out using the process according to the invention. A cell sample is prepared: The cells are inoculated on glass coverslips in Petri dishes. A portion of these coverslips are contaminated with metals or pesticides or any other DNA-breaking chemical or biochemical agent at different concentrations. A further portion is not contaminated; it represents the spontaneous state. During contamination, the cells remain in the culture incubator at 37° C.
For the contaminated cells, characteristics are acquired corresponding to the state after an incubation time with the DNA-breaking chemical or biochemical agent. Said characteristics are represented by foci corresponding to the marker pH2AX. The cells on glass coverslips are then fixed, lysed and hybridized. The following procedure, known per se (Bodgi et al, “A single formula to describe radiation-induced protein relocalization: towards a mathematical definition of individual radiosensitivity”, J Theor Biol. 21 p 333:135-45.2013):
as §1
The results are acquired using these coverslips on an immunofluorescence microscope (Olympus model for example). The reading may be direct (typically by counting the foci on at least 50 cells in G0/G1 for each point) or using dedicated image analysis software, or on an automated microscope; preferably the software or automated microscope methods are calibrated with manual determinations.
(§6) The tables hereinafter summarize the results of numerous experiments which were carried out as described in the “Detailed description” section above.
(§7) In tables 3 and 4, “pH2AX” corresponds to the mean number of nuclear foci obtained with the marker pH2AX, 24 hours after contacting the cell sample with the chemical agent at the concentration C (NpH2AX(24 h, C)), and where “Micronuclei” corresponds to the mean number of micronuclei observed per 100 cells 24 hours after contacting the cell sample with the chemical agent at the concentration C(NMN(24 h, C)).

[5] = system: HMEC cells; test: Micronuclei per 100 cells 24 h after contacting, Table 4 lower part (HMEC); details: line cell blank (below Hasp)
Method: as §5, §1
Counterstaining with DAPI (a DNA marker known to those skilled in the art) makes it possible to locate the nucleus to situate the cytoplasmic or nuclear location to quantify the micronuclei, which are complementary cell markers to the data on the foci.
as §6, §7

[6] = system: pH2AX nuclear foci (DNA double-strand breaks); test: Single toxicity scale: reference concentration Cref and risk group prediction from NpH2AX(24 h)
Method: (i) if the reference concentration has not previously been determined by the chemical or biochemical agent to be studied, a cell sample is prepared by dispersion and/or amplification of so-called reference cells (sensitivity group I); a plurality of concentrations within a broad concentration range of said breaking agent (said concentration range ranging for example from nM to mM) is applied for a predetermined period of time (preferably 24 hours) on this cell sample; pH2AX immunofluorescence is performed with DAPI counterstaining which also enables on the same cell sample the analysis of micronuclei for all the concentrations applied.
(ii) Either the mean number of nuclear foci observed with the marker pH2AX at the observation times t and at the concentration C (this mean number being referred to as NpH2AX(t, C)), or the mean number of micronuclei per 100 cells at the observation times t and at the concentration C (this mean number being referred to as NMN(t, C)), or the standard error a corresponding to the error committed on these respective measurements which must be performed on at least 50 nuclei once (Gaussian standard error) or 3 independent experiments of 50 nuclei (standard error of the mean).
(iii) The so-called reference concentration Cref is the concentration giving:
NpH2AX(24 h,Cref)+2σ=2 or indeed NMN(24 h,Cref)+2σ=2%;
If for the cell sample NpH2AX(24 h, Cref)<=2 or NMN(24 h, Cref)<=0.5%, preferably NMN(24 h, Cref)<=1% or even more preferentially NMN(24 h, Cref)<=2%, then the genotoxic risk is considered to be low or described as “Group I”
The experimental data presented in table 4 above were used to determine the reference concentration Cref particularly for Pb(NO3)2 (Cref<1 μM) and CdCl2 (Cref=10 μM).
Table 5 presents numerical examples of correspondence between the single toxicity scale according to the invention and the corresponding clinical signs.

SMILES: O=c1[nH]cc(F)c(=O)[nH]1 [5FU]
- pH2AX(24 h) + 2xSEM ([1]; 5FU 1.00 μM): 1.97 foci
- pH2AX(24 h) ([1]; 5FU 1.00 μM): 1.16 foci
- pH2AX(24 h) + 2xSEM ([1]; 5FU 3.00 μM): 1.93 foci
- pH2AX(24 h) ([1]; 5FU 3.00 μM): 1.38 foci
- pH2AX(24 h) + 2xSEM ([1]; 5FU 10.00 μM): 0.51 foci
- pH2AX(24 h) ([1]; 5FU 10.00 μM): 0.30 foci
- pH2AX(24 h) + 2xSEM ([1]; 5FU 30.00 μM): 2.01 foci
- pH2AX(24 h) ([1]; 5FU 30.00 μM): 1.18 foci
- reference concentration Cref defined by NpH2AX(24 h, Cref)+2σ=2 ([1]; control cell line MRC9): 30 µM
- pH2AX(24 h) + 2xSEM ([2]; 5FU 1.00 μM): 3.32 foci
- pH2AX(24 h) ([2]; 5FU 1.00 μM): 2.70 foci
- pH2AX(24 h) + 2xSEM ([2]; 5FU 3.00 μM): 2.43 foci
- pH2AX(24 h) ([2]; 5FU 3.00 μM): 2.41 foci
- pH2AX(24 h) + 2xSEM ([2]; 5FU 10.00 μM): 3.87 foci
- pH2AX(24 h) ([2]; 5FU 10.00 μM): 2.96 foci
- pH2AX(24 h) + 2xSEM ([2]; 5FU 30.00 μM): 2.38 foci
- pH2AX(24 h) ([2]; 5FU 30.00 μM): 2.38 foci
- number of pH2AX foci ([2]; GM02718, 5FU concentration of 30 μM, 24 h): approximately 2.38 foci
- genotoxic risk group ([2]; cell line GM02718 at Cref 30 μM): group II
- pH2AX(24 h) + 2xSEM ([3]; 03HLS, 5FU 1.00 μM): 1.49 foci
- pH2AX(24 h) ([3]; 03HLS, 5FU 1.00 μM): 1.40 foci
- pH2AX(24 h) + 2xSEM ([3]; 03HLS, 5FU 3.00 μM): 2.26 foci
- pH2AX(24 h) ([3]; 03HLS, 5FU 3.00 μM): 1.69 foci
- pH2AX(24 h) + 2xSEM ([3]; 03HLS, 5FU 10.00 μM): 1.69 foci
- pH2AX(24 h) ([3]; 03HLS, 5FU 10.00 μM): 1.63 foci
- pH2AX(24 h) + 2xSEM ([3]; 03HLS, 5FU 30.00 μM): 2.59 foci
- pH2AX(24 h) ([3]; 03HLS, 5FU 30.00 μM): 2.00 foci
- number of pH2AX foci ([3]; 03HLS, 5FU concentration of 30 μM, 24 h): ~2.59 foci
- genotoxic risk group ([3]; cell line 03HLS at Cref 30 μM): group II

SMILES: [Cl][Cd][Cl] [CdCl2]
- pH2AX ([4]; 10 μM): 1.9 foci
- pH2AX ([4]; 30 μM): 3.7 foci
- pH2AX ([4]; 100 μM): 8.3 foci
- Micronuclei ([5]; 10 μM): 3.5 per 100 cells
- Micronuclei ([5]; 30 μM): 9 per 100 cells
- Micronuclei ([5]; 100 μM): 12.25 per 100 cells
- Reference concentration Cref ([6]; NpH2AX(24 h) < 2, determined from data of table 4): 10 µM
- Prediction based on algorithm: concentration above which “Group III” risk ([6]; NpH2AX(24 h) > 8): predicted above 100 μM
